Reference: PubChem BioAssay AID330 (DTP/NCI, 2004)
Where “and” joins values, the source holds several entries; their conditions need not be identical. Equal values may be shown once. Inconclusive results and toxic doses are left out.

Tested on: P388 leukemia ip, CD2F1 mice, survival T/C
Test: NCI In Vivo Anticancer Drug Screen. Data for tumor model P388 Leukemia (intraperitoneal) in CD2F1 (CDF1) mice
Settings: endpoint: median survival time, higher = longer survival
Summary of the method: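 Mice carrying the transplanted tumor received test compound or vehicle. Survival was recorded in each group, and the value is the treated-group measurement divided by that of the vehicle-treated control group.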

[1] = dose: 50.0 mg/kg/injection, schedule: Q01DX009 (ip), vehicle: Klucel (hydroxypropylcellulose) (HPC)
[2] = dose: 100.0 mg/kg/injection, schedule: Q01DX009 (ip), vehicle: Klucel (hydroxypropylcellulose) (HPC)
[3] = dose: 200.0 mg/kg/injection, schedule: Q01DX009 (ip), vehicle: Klucel (hydroxypropylcellulose) (HPC)
[4] = dose: 60.0 mg/kg/injection, schedule: Q01DX005 (ip), vehicle: saline with Tween-80
[5] = dose: 120.0 mg/kg/injection, schedule: Q01DX005 (ip), vehicle: saline with Tween-80
[6] = dose: 240.0 mg/kg/injection, schedule: Q01DX005 (ip), vehicle: saline with Tween-80
[7] = dose: 4.0 mg/kg/injection, schedule: Q01DX005 (ip), vehicle: Klucel (hydroxypropylcellulose) (HPC)
[8] = dose: 8.0 mg/kg/injection, schedule: Q01DX005 (ip), vehicle: Klucel (hydroxypropylcellulose) (HPC)
[9] = dose: 16.0 mg/kg/injection, schedule: Q01DX005 (ip), vehicle: Klucel (hydroxypropylcellulose) (HPC)
[10] = dose: 50.0 mg/kg/injection, schedule: Q01DX005 (ip), vehicle: Klucel (hydroxypropylcellulose) (HPC)
[11] = dose: 100.0 mg/kg/injection, schedule: Q01DX005 (ip), vehicle: Klucel (hydroxypropylcellulose) (HPC)
[12] = dose: 200.0 mg/kg/injection, schedule: Q01DX005 (ip), vehicle: Klucel (hydroxypropylcellulose) (HPC)
[13] = dose: 100.0 mg/kg/injection, schedule: Q01DX001 (ip), vehicle: saline
[14] = dose: 200.0 mg/kg/injection, schedule: Q01DX001 (ip), vehicle: saline
[15] = dose: 400.0 mg/kg/injection, schedule: Q01DX001 (ip), vehicle: saline
[16] = dose: 50.0 mg/kg/injection, schedule: Q01DX005 (ip), vehicle: saline
[17] = dose: 50.0 mg/kg/injection, schedule: Q01DX005 (ip), vehicle: saline with Tween-80

O=C(O)C(C1CC(Cl)=NO1)N1C(=O)c2ccccc2C1=O (centres undefined)
T/C (dose: 6.2 mg/kg/injection, schedule: Q04DX003 (ip), vehicle: other): 101 % of control | T/C (dose: 12.5 mg/kg/injection, schedule: Q04DX003 (ip), vehicle: other): 100 % of control | T/C (dose: 25.0 mg/kg/injection, schedule: Q04DX003 (ip), vehicle: other): 105 % of control | T/C (dose: 50.0 mg/kg/injection, schedule: Q04DX003 (ip), vehicle: other): 99 % of control | T/C (dose: 100.0 mg/kg/injection, schedule: Q04DX003 (ip), vehicle: other): 101 % of control | T/C (dose: 200.0 mg/kg/injection, schedule: Q04DX003 (ip), vehicle: other): 99 % of control

CCOC(=O)C(CNC(=O)c1ccccc1)(NC(C)=O)C(=O)OCC
T/C (dose: 12.5 mg/kg/injection, schedule: Q01DX009 (ip), vehicle: other): 121 % of control | T/C (dose: 25.0 mg/kg/injection, schedule: Q01DX009 (ip), vehicle: other): 121 % of control | T/C (dose: 50.0 mg/kg/injection, schedule: Q01DX009 (ip), vehicle: other): 112 % of control | T/C (dose: 100.0 mg/kg/injection, schedule: Q01DX009 (ip), vehicle: other): 97 % of control | T/C (dose: 200.0 mg/kg/injection, schedule: Q01DX009 (ip), vehicle: other): 103 % of control

C[Si](C)(C)Cn1ccc(=O)[nH]c1=O
T/C (dose: 60.0 mg/kg/injection, schedule: Q01DX005 (ip), vehicle: Klucel + Tween-80): 94 % of control | T/C (dose: 120.0 mg/kg/injection, schedule: Q01DX005 (ip), vehicle: Klucel + Tween-80): 92 % of control | T/C (dose: 240.0 mg/kg/injection, schedule: Q01DX005 (ip), vehicle: Klucel + Tween-80): 98 % of control

CCOC(=O)C1(n2[nH]c(=O)n(-c3ccccc3)c2=O)CC(C)(C)OC1=O (centres undefined)
T/C [1]: 106 % of control | T/C [2]: 98 % of control | T/C [3]: 98 % of control

CC(=O)Nc1ccc(/C=N/NC(=O)CNC(=O)Nc2cccc(Cl)c2Cl)cc1
T/C (dose: 25.0 mg/kg/injection, schedule: Q01DX009 (ip), vehicle: saline with Tween-80): 99 % of control | T/C (dose: 50.0 mg/kg/injection, schedule: Q01DX009 (ip), vehicle: saline with Tween-80): 97 % of control | T/C (dose: 100.0 mg/kg/injection, schedule: Q01DX009 (ip), vehicle: saline with Tween-80): 89 % of control | T/C (dose: 200.0 mg/kg/injection, schedule: Q01DX009 (ip), vehicle: saline with Tween-80): 93 % of control

CC(=O)C(O)CC(=O)C(O)CC(=O)C(O)N1C(=O)C=CC1=O (centres undefined)
T/C (dose: 6.25 mg/kg/injection, schedule: Q01DX009 (ip), vehicle: Klucel (hydroxypropylcellulose) (HPC)): 93 % of control | T/C (dose: 12.5 mg/kg/injection, schedule: Q01DX009 (ip), vehicle: Klucel (hydroxypropylcellulose) (HPC)): 95 % of control | T/C (dose: 25.0 mg/kg/injection, schedule: Q01DX009 (ip), vehicle: Klucel (hydroxypropylcellulose) (HPC)): 97 % of control

c1ccc(-c2cc(Nc3ccc4c(c3)OCO4)c3cc(C4CCCCC4)ccc3n2)cc1
T/C [4]: 103 % of control | T/C [5]: 93 % of control | T/C [6]: 89 % of control

C=C1C(O)C2OC(=O)C(=C)C2C(OC(=O)/C(C)=C/C)CC2(C)OC2C2OC12 (centres undefined)
T/C [7]: 96 % of control | T/C [8]: 103 % of control | T/C [9]: 100 % of control | T/C (dose: 32.0 mg/kg/injection, schedule: Q01DX005 (ip), vehicle: Klucel (hydroxypropylcellulose) (HPC)): 116 % of control | T/C [10]: 115 % of control | T/C (dose: 64.0 mg/kg/injection, schedule: Q01DX005 (ip), vehicle: Klucel (hydroxypropylcellulose) (HPC)): 116 % of control | T/C [11]: 109 % of control | T/C [12]: 103 % of control

O=C1C(=C(O)c2ccccc2)C(=O)c2ccccc21
T/C (dose: 15.0 mg/kg/injection, schedule: Q01DX005 (ip), vehicle: saline with Tween-80): 99 % of control | T/C (dose: 30.0 mg/kg/injection, schedule: Q01DX005 (ip), vehicle: saline with Tween-80): 105 % of control | T/C [4]: 105 % of control and 109 % of control | T/C [5]: 104 % of control

C=CCc1cc(OC)c(OCC(=O)O)c(OC)c1
T/C (dose: 100.0 mg/kg/injection, schedule: Q04DX003 (ip), vehicle: Klucel (hydroxypropylcellulose) (HPC)): 98 % of control | T/C (dose: 200.0 mg/kg/injection, schedule: Q04DX003 (ip), vehicle: Klucel (hydroxypropylcellulose) (HPC)): 109 % of control

OCC1OC(OCC2OC(OC3(CO)OC(CO)C(O)C3O)C(O)C(O)C2O)C(O)C(O)C1O (centres undefined)
T/C [13]: 102 % of control | T/C [14]: 103 % of control | T/C [15]: 93 % of control

CC(=O)OC1C2=C(C)C(=O)OC2=CC2=CCCC(C)C21C (centres undefined)
T/C (dose: 4.0 mg/kg/injection, schedule: Q01DX009 (ip), vehicle: Klucel (hydroxypropylcellulose) (HPC)): 102 % of control | T/C (dose: 8.0 mg/kg/injection, schedule: Q01DX009 (ip), vehicle: Klucel (hydroxypropylcellulose) (HPC)): 91 % of control | T/C (dose: 16.0 mg/kg/injection, schedule: Q01DX009 (ip), vehicle: Klucel (hydroxypropylcellulose) (HPC)): 102 % of control | T/C (dose: 32.0 mg/kg/injection, schedule: Q01DX009 (ip), vehicle: Klucel (hydroxypropylcellulose) (HPC)): 109 % of control

CC1=C(C)C[C@](C)(S(=O)(=O)N2CCOCC2)S(=O)C1 (some centres undefined)
T/C (dose: 60.0 mg/kg/injection, schedule: Q01DX005 (ip), vehicle: saline): 105 % of control | T/C (dose: 120.0 mg/kg/injection, schedule: Q01DX005 (ip), vehicle: saline): 98 % of control | T/C (dose: 240.0 mg/kg/injection, schedule: Q01DX005 (ip), vehicle: saline): 111 % of control

C=CCCCN1C(=O)CCC1=O
T/C [16]: 105 % of control | T/C (dose: 100.0 mg/kg/injection, schedule: Q01DX005 (ip), vehicle: saline): 97 % of control | T/C (dose: 200.0 mg/kg/injection, schedule: Q01DX005 (ip), vehicle: saline): 100 % of control

CNC(=O)c1cc2ccccc2o/c1=N/NC(N)=O
T/C [13]: 103 % of control | T/C [14]: 103 % of control | T/C [15]: 96 % of control

CCCCCCCCCCCCCC1=C(O)C(=O)C=C(O)C1=O
T/C (dose: 1.0 mg/kg/injection, schedule: Q01DX005 (ip), vehicle: Klucel (hydroxypropylcellulose) (HPC)): 100 % of control | T/C (dose: 2.0 mg/kg/injection, schedule: Q01DX005 (ip), vehicle: Klucel (hydroxypropylcellulose) (HPC)): 105 % of control | T/C [7]: 95 % of control | T/C [8]: 102 % of control | T/C [9]: 98 % of control

CC(C)(C)C1=CCN(C(C)(C)/C=N\O)CC1
T/C (dose: 12.5 mg/kg/injection, schedule: Q01DX005 (ip), vehicle: saline with Tween-80): 97 % of control | T/C (dose: 25.0 mg/kg/injection, schedule: Q01DX005 (ip), vehicle: saline with Tween-80): 100 % of control | T/C [17]: 100 % of control and 96 % of control

Nc1nc(N)c2cc(CNc3ccc(C(=O)NC(C(=O)O)C(=O)O)cc3)ccc2n1
T/C (dose: 0.05 mg/kg/injection, schedule: Q01DX009 (ip), vehicle: saline sonified): 168 % of control | T/C (dose: 0.1 mg/kg/injection, schedule: Q01DX009 (ip), vehicle: saline sonified): 204 % of control | T/C (dose: 0.2 mg/kg/injection, schedule: Q01DX009 (ip), vehicle: saline sonified): 86 % of control | T/C (dose: 100.0 micrograms/kg/injection, schedule: Q01DX009 (ip), vehicle: saline sonified): 159 % of control

CCc1ccc2ccc3ccc(CC)nc3c2n1
T/C [4]: 106 % of control | T/C [5]: 102 % of control | T/C [6]: 99 % of control

CC(=O)CC1CCCC(C#N)N1 (centres undefined)
T/C (dose: 12.5 mg/kg/injection, schedule: Q01DX005 (ip), vehicle: saline): 97 % of control | T/C (dose: 25.0 mg/kg/injection, schedule: Q01DX005 (ip), vehicle: saline): 101 % of control | T/C [16]: 100 % of control and 98 % of control

COc1ccc(C(=O)c2ccccc2)c(C(=O)O)c1
T/C [10]: 101 % of control | T/C [11]: 97 % of control | T/C [12]: 104 % of control

Cc1c(C)[n+](=O)c2ccc(/C=[N+](\C)[O-])cc2n1[O-]
T/C [1]: 98 % of control | T/C [2]: 100 % of control | T/C [3]: 101 % of control

CC(O)C(N=C1N=CNC2=NC=NC12)C(=O)O (centres undefined)
T/C [17]: 100 % of control | T/C (dose: 100.0 mg/kg/injection, schedule: Q01DX005 (ip), vehicle: saline with Tween-80): 96 % of control | T/C (dose: 200.0 mg/kg/injection, schedule: Q01DX005 (ip), vehicle: saline with Tween-80): 95 % of control
